Where a SMILES comes first, the peptide text is derived from it. Bridges are numbered along the chain shown (N, C = ends). [ ]: non-standard residue; d: D form. The star is where a group is joined. hPhe(3-Cl-4-CF3) = N[C@@H](CCc1ccc(C(F)(F)F)c(Cl)c1)C(=O)O; NPrPhe(4-CF3) = CCCN[C@@H](Cc1ccc(C(F)(F)F)cc1)C(=O)O; Morpholine(3S-CO) = O=C(O)[C@@H]1COCCN1; NMeGly(cPent) = CN[C@H](C(=O)O)C1CCCC1; NMeD = CN[C@@H](CC(=O)O)C(=O)O; NMeL = CN[C@@H](CC(C)C)C(=O)O; Morpholide = C1CN(*)CCO1; Ac5c = NC1(C(=O)O)CCCC1; NEtG = CCNCC(=O)O; Sar = CNCC(=O)O
Tests used:
[1] = molecular target: GDP-bound NRAS wild-type protein (Homo sapiens, UniProt P01111); assay: Binding to NRAS by surface plasmon resonance (SPR), Single Cycle Kinetics; conditions: SPR
[2] = molecular target: GDP-bound HRAS wild-type protein (Homo sapiens, UniProt P01112); assay: Binding to HRAS by surface plasmon resonance (SPR), Single Cycle Kinetics; conditions: SPR
[3] = GDP-bound NRAS wild-type vs GDP-bound KRAS wild-type
[4] = GDP-bound HRAS wild-type vs GDP-bound KRAS wild-type
[5] = KD ratio, GDP-bound NRAS wild-type vs GDP-bound KRAS wild-type
[6] = KD ratio, GDP-bound HRAS wild-type vs GDP-bound KRAS wild-type

Chain of GDP-bound HRAS wild-type protein (P01112 whole entry): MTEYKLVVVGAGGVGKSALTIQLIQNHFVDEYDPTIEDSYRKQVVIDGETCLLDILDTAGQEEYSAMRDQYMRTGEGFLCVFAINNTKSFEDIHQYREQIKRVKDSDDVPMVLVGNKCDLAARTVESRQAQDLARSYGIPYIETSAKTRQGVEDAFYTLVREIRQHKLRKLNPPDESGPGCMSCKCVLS
Chain of GDP-bound NRAS wild-type protein (P01111 whole entry): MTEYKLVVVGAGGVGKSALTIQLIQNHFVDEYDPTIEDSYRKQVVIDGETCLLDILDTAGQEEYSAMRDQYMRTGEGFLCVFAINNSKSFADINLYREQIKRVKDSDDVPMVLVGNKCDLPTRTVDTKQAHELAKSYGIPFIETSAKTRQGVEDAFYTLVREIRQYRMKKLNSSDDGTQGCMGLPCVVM

## CCC[C@H]1C(=O)N[C@@H]([C@@H](C)CC)C(=O)N2CCC[C@H]2C(=O)N(C)[C@H]2C/C=C\CCN(C2=O)[C@@H](Cc2ccc(C(F)(F)F)cc2)C(=O)N(C)CC(=O)N[C@@H](CCc2ccc(C(F)(F)F)c(OC)c2)C(=O)N2C[C@H](OCC)C[C@H]2C(=O)N(C)C2(CCC2)C(=O)N(C)[C@@H](C(CC)CC)C(=O)N(C)[C@H](C(=O)N(C)C)CC(=O)N1C [PP2317]
[1]; [3]
  NRAS/KRAS (ratio of KD value with respect to NRAS to KD value with respect to KRAS): A (a compound having 10 or more and less than 20 is denoted as A)
[2]; [4]
  HRAS/KRAS (ratio of KD value with respect to HRAS to KD value with respect to KRAS): A (a compound having 10 or more and less than 20 is denoted as A)

## CCO[C@@H]1C[C@H]2C(=O)NC3(CC(C)(C)C3)C(=O)N(C)[C@@H](C(CC)CC)C(=O)N(C)[C@H](C(=O)N(C)C)CC(=O)N(C)[C@@H](C(C)C)C(=O)N[C@@H]([C@@H](C)CC)C(=O)N(C)CC(=O)N(C)[C@H]3C/C=C\CCN(C3=O)[C@@H](CC3CCC(F)(F)CC3)C(=O)N(C)CC(=O)N[C@@H](CCc3cc(F)c(C(F)(F)F)c(F)c3)C(=O)N2C1 [PP2481]
[1]; [3]
  NRAS/KRAS (ratio of KD value with respect to NRAS to KD value with respect to KRAS): A (a compound having 10 or more and less than 20 is denoted as A)
[2]; [4]
  HRAS/KRAS (ratio of KD value with respect to HRAS to KD value with respect to KRAS): A (a compound having 10 or more and less than 20 is denoted as A)

## CCCN(C)C(=O)[C@@H]1CC(=O)N(C)[C@@H](CC)C(=O)N[C@@H]([C@@H](C)CC)C(=O)N(C)CC(=O)N(C)[C@H]2C/C=C\CCN(C2=O)[C@@H](Cc2ccc(C(F)(F)F)cc2)C(=O)N(C)CC(=O)N[C@@H](CCc2cc(F)c(C(F)(F)F)c(F)c2)C(=O)N2C[C@H](OCC)C[C@H]2C(=O)NC2(CC(C)(C)C2)C(=O)N(C)[C@@H](C2CCCC2)C(=O)N1C [PP1670]
[1]; [5]
  NRAS/KRAS (ratio of KD value for NRAS to KD value for KRAS): A (a compound having 10 or more and less than 20 is denoted as A)
[2]; [6]
  HRAS/KRAS (ratio of KD value for HRAS to KD value for KRAS): A (a compound having 10 or more and less than 20 is denoted as A)

## CCCOC[C@H]1C(=O)N[C@@H]([C@@H](C)CC)C(=O)N(C)CC(=O)N(C)[C@H]2C/C=C\CCN(C2=O)[C@@H](Cc2ccc(C)cc2)C(=O)N(C)CC(=O)N[C@@H](CCc2cc(F)c(C(F)(F)F)c(F)c2)C(=O)N2C[C@H](CC)C[C@H]2C(=O)NC2(CCCC2)C(=O)N(C)[C@@H](C2CCCC2)C(=O)N(C)[C@H](C(=O)N(C)C)CC(=O)N1C [PP2218]
[1]; [3]
  NRAS/KRAS (ratio of KD value with respect to NRAS to KD value with respect to KRAS): A (a compound having 10 or more and less than 20 is denoted as A)
[2]; [4]
  HRAS/KRAS (ratio of KD value with respect to HRAS to KD value with respect to KRAS): A (a compound having 10 or more and less than 20 is denoted as A)

## CCCCO[C@@H]1C[C@H]2C(=O)NC3(CCC3)C(=O)N(C)[C@@H](C3CCCC3)C(=O)N(C)[C@H](C(=O)N3CCOCC3)CC(=O)N(C)[C@@H](CC(C)C)C(=O)N[C@@H]([C@@H](C)CC)C(=O)N(C)CC(=O)N(C)[C@H]3CCCCN(C3=O)[C@@H](Cc3ccc(C(F)(F)F)cc3)C(=O)N(C)CC(=O)N[C@@H](CCc3cc(F)c(C(F)(F)F)c(F)c3)C(=O)N2C1 [PP0999]
[1]; [5]
  NRAS/KRAS (ratio of KD value with respect to NRAS to KD value with respect to KRAS): C (A compound having a KD ratio of 0.1 or more and less than 3 is denoted as C)
[2]; [6]
  HRAS/KRAS (ratio of KD value with respect to HRAS to KD value with respect to KRAS): B (a compound having 3 or more and less than 10 is denoted as B)

## CCCN1C(=O)CN(C)C(=O)CN(CC)C(=O)[C@H]([C@@H](C)CC)NC(=O)[C@H](CC(C)C)N(C)C(=O)C[C@@H](C(=O)N2CCOCC2)N(C)C(=O)[C@H](C2CCCC2)N(C)C(=O)C2(CCCC2)NC(=O)[C@@H]2COCCN2C(=O)[C@H](CCc2ccc(C(F)(F)F)c(Cl)c2)NC(=O)CN(C)C(=O)[C@@H]1Cc1ccc(C(F)(F)F)cc1 [PP0299] ([NMeL]I[NEtG][Sar][NPrPhe(4-CF3)][Sar][hPhe(3-Cl-4-CF3)][Morpholine(3S-CO)][Ac5c][NMeGly(cPent)][NMeD]-Morpholide; lactam N-11)
[1]; KD ratio NRAS/KRAS
  NRAS/KRAS (ratio of KD for GDP-bound NRAS wild-type to KD for KRAS): B (a compound having 3 or more and less than 10 is denoted as B)
[2]; KD ratio HRAS/KRAS
  HRAS/KRAS (ratio of KD for GDP-bound HRAS wild-type to KD for KRAS): B (a compound having 3 or more and less than 10 is denoted as B)

## CCO[C@@H]1C[C@H]2C(=O)NC3(CCC3)C(=O)N(C)[C@@H](C3CCCC3)C(=O)N(C)[C@H](C(=O)N(C)CCOC)CC(=O)N(C)[C@@H](C)C(=O)N[C@@H]([C@@H](C)CC)C(=O)N(C)CC(=O)N(C)[C@H]3C/C=C\CCN(C3=O)[C@@H](Cc3ccc(C(F)(F)F)cc3)C(=O)N(C)CC(=O)N[C@@H](CCc3cc(F)c(C(F)(F)F)c(F)c3)C(=O)N2C1 [PP1319]
[1]; KD ratio class
  NRAS/KRAS (ratio of KD value for GDP-bound NRAS wild-type protein to KD value for KRAS): A (a compound having 10 or more and less than 20 is denoted as A)
[2]; KD ratio class
  HRAS/KRAS (ratio of KD value for GDP-bound HRAS wild-type protein to KD value for KRAS): B (a compound having 3 or more and less than 10 is denoted as B)

— patent US20250230193A1, “CYCLIC COMPOUND HAVING SELECTIVE KRAS INHIBITORY EFFECT ON HRAS AND NRAS” (CHUGAI SEIYAKU KABUSHIKI KAISHA, priority 2022, published 2025)
